This passage reports IC50 results from patent US12338237B2, “Derivatives having 1,2,3,4-tetrahydronaphthalene moiety or pharmaceutically acceptable salt thereof and pharmaceutical compositions comprising the same” (YUHAN CORPORATION, priority 2019, dated 2025).

One assay concerns GM1 production. In words: cells. In kind it is cell-based. To be noted: Homo sapiens, Jurkat, 72 h.
Assay [1] has as its target glucosylceramide synthase (GCS) (Homo sapiens (Human), UniProt Q16739). Nature of the assay: Evaluation of inhibitory activities against GCS (enzyme reaction with A549 cell lysate, NBD C6-ceramide, HPLC fluorescence). In kind it is biochemical. Particulars: GCS activity in A549 cell lysate, 37° C. for 90 minutes. In short, it runs like this:
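Lysate of A549 cells in 50 mM HEPES pH 7.3 incubated with test compound and NBD C6-ceramide at 37 °C for 90 min; lipids extracted with chloroform/methanol and GlcCer and ceramide peaks quantified by HPLC fluorescence. Activity from GlcCer area fraction, normalised between DMSO and ibiglustat controls.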

Structures are written as SMILES. pIC50: −log10 of the molar value.

Chain of glucosylceramide synthase (GCS) (Q16739 whole entry, looked up): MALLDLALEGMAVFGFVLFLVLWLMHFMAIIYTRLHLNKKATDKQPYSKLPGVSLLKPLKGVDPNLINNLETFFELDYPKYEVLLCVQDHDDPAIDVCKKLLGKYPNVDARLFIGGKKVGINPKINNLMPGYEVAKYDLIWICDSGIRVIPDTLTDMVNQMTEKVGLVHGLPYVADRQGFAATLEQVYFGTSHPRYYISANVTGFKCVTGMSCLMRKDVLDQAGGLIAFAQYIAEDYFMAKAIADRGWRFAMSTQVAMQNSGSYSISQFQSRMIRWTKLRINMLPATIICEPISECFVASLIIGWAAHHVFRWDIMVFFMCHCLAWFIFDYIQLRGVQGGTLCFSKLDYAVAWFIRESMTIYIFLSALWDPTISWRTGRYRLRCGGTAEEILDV

In the case of `O=C(NC1c2cc(-c3cccc(C(F)(F)F)c3)ccc2CCC12CC2)O[C@@H]1CN2CCC1CC2` (stereo partly drawn) [Example 177, (S)-quinuclidin-3-yl (7′-(3-(trifluoromethyl)phenyl)-3′,4′-dihydro-1′H-spiro[cyclopropane-1,2′-naphthalen]-1′-yl)carbamate], the pIC50 is 6.77 with GM1 production and 7.63 in assay [1].
In the case of `O=C(NC1c2cc(-c3cccc(OC(F)(F)F)c3)ccc2CCC12CC2)O[C@@H]1CN2CCC1CC2` (stereo partly drawn) [Example 178, (S)-quinuclidin-3-yl (7′-(3-(trifluoromethoxy)phenyl)-3′,4′-dihydro-1′H-spiro[cyclopropane-1,2′-naphthalen]-1′-yl)carbamate], the results for the pIC50 (with GM1 production; in assay [1]) were 6.56 and 7.64, respectively.
As to `O=C(NC1c2cc(-c3ccccc3F)ccc2CCC12CC2)O[C@@H]1CN2CCC1CC2` (stereo partly drawn) [Example 179, (S)-quinuclidin-3-yl (7′-(2-fluorophenyl)-3′,4′-dihydro-1′H-spiro[cyclopropane-1,2′-naphthalen]-1′-yl)carbamate], the negative-log IC50 (pIC50) in the assay with GM1 production was 6.94; in assay [1], 8.00.
In the case of `O=C(NC1c2cc(-c3ccccc3Cl)ccc2CCC12CC2)O[C@@H]1CN2CCC1CC2` (stereo partly drawn) [Example 180, (S)-quinuclidin-3-yl (7′-(2-chlorophenyl)-3′,4′-dihydro-1′H-spiro[cyclopropane-1,2′-naphthalen]-1′-yl)carbamate], the pIC50 is 7.00 in the assay on GM1 production and 8.02 in assay [1].
Regarding `O=C(NC1c2cc(-c3ccccc3C(F)(F)F)ccc2CCC12CC2)O[C@@H]1CN2CCC1CC2` (stereo partly drawn) [Example 181, (S)-quinuclidin-3-yl (7′-(2-(trifluoromethyl)phenyl)-3′,4′-dihydro-1′H-spiro[cyclopropane-1,2′-naphthalen]-1′-yl)carbamate], the negative-log IC50 (pIC50) in the assay on GM1 production was 7.04; in assay [1], 7.90.
For `O=C(NC1c2cc(-c3ccccc3OC(F)(F)F)ccc2CCC12CC2)O[C@@H]1CN2CCC1CC2` (stereo partly drawn) [Example 182, (S)-quinuclidin-3-yl (7′-(2-(trifluoromethoxy)phenyl)-3′,4′-dihydro-1′H-spiro[cyclopropane-1,2′-naphthalen]-1′-yl)carbamate], the results for the pIC50 (in the assay on GM1 production; in assay [1]) were 7.39 and 7.92, respectively.
As to `Cc1ccc(-c2ccc3c(c2)C(NC(=O)O[C@@H]2CN4CCC2CC4)C2(CC3)CC2)cc1` (stereo partly drawn) [Example 183, (S)-quinuclidin-3-yl (7′-(p-tolyl)-3′,4′-dihydro-1′H-spiro[cyclopropane-1,2′-naphthalen]-1′-yl)carbamate], the results for the negative logarithm of the IC50 (pIC50) (in the assay with GM1 production; in assay [1]) were 6.84 and 7.89, respectively.
The corresponding values for `O=C(NC1c2cc(-c3ccc(OC(F)F)cc3)ccc2CCC12CC2)O[C@@H]1CN2CCC1CC2` (stereo partly drawn) [Example 184, (S)-quinuclidin-3-yl (7′-(4-(difluoromethoxy)phenyl)-3′,4′-dihydro-1′H-spiro[cyclopropane-1,2′-naphthalen]-1′-yl)carbamate] are 7.06 and 8.12.
For `COCOc1ccc(-c2ccc3c(c2)C(NC(=O)O[C@@H]2CN4CCC2CC4)C2(CC3)CC2)cc1` (stereo partly drawn) [Example 185, (S)-quinuclidin-3-yl (7′-(4-(methoxymethoxy)phenyl)-3′,4′-dihydro-1′H-spiro[cyclopropane-1,2′-naphthalen]-1′-yl)carbamate], the pIC50 in the assay with GM1 production was 7.14; in assay [1], 7.83.
With `O=C(NC1c2ccc(-c3ccc(F)cc3)cc2CCC12CC2)O[C@@H]1CN2CCC1CC2` (stereo partly drawn) [Example 186, (S)-quinuclidin-3-yl (6′-(4-fluorophenyl)-3′,4′-dihydro-1′H-spiro[cyclopropane-1,2′-naphthalen]-1′-yl)carbamate], the results for the pIC50 (with GM1 production; in assay [1]) were 7.10 and 7.61, respectively.
As to `O=C(NC1c2ccc(-c3ccc(Cl)cc3)cc2CCC12CC2)O[C@@H]1CN2CCC1CC2` (stereo partly drawn) [Example 187, (S)-quinuclidin-3-yl (6′-(4-chlorophenyl)-3′,4′-dihydro-1′H-spiro[cyclopropane-1,2′-naphthalen]-1′-yl)carbamate], the negative-log IC50 (pIC50) is 7.45 in the assay with GM1 production and 7.86 in assay [1].
Consider `O=C(NC1c2ccc(-c3ccc(C(F)(F)F)cc3)cc2CCC12CC2)O[C@@H]1CN2CCC1CC2` (stereo partly drawn) [Example 188, (S)-quinuclidin-3-yl (6′-(4-(trifluoromethyl)phenyl)-3′,4′-dihydro-1′H-spiro[cyclopropane-1,2′-naphthalen]-1′-yl)carbamate], for which the values for the negative-log IC50 (pIC50) (in the assay with GM1 production; in assay [1]) were 7.47 and 7.79, respectively.
The corresponding values for `O=C(NC1c2ccc(-c3ccc(OC(F)(F)F)cc3)cc2CCC12CC2)O[C@@H]1CN2CCC1CC2` (stereo partly drawn) [Example 189, (S)-quinuclidin-3-yl (6′-(4-(trifluoromethoxy)phenyl)-3′,4′-dihydro-1′H-spiro[cyclopropane-1,2′-naphthalen]-1′-yl)carbamate] are 7.60 and 7.72.
For `O=C(NC1c2ccc(-c3cccc(F)c3)cc2CCC12CC2)O[C@@H]1CN2CCC1CC2` (stereo partly drawn) [Example 190, (S)-quinuclidin-3-yl (6′-(3-fluorophenyl)-3′,4′-dihydro-1′H-spiro[cyclopropane-1,2′-naphthalen]-1′-yl)carbamate], the pIC50 is 7.70 with GM1 production and 7.92 in assay [1].
As for `O=C(NC1c2ccc(-c3cccc(Cl)c3)cc2CCC12CC2)O[C@@H]1CN2CCC1CC2` (stereo partly drawn) [Example 191, (S)-quinuclidin-3-yl (6′-(3-chlorophenyl)-3′,4′-dihydro-1′H-spiro[cyclopropane-1,2′-naphthalen]-1′-yl)carbamate], the negative-log IC50 (pIC50) is 7.84 in the assay with GM1 production and 8.00 in assay [1].
The corresponding values for `O=C(NC1c2ccc(-c3cccc(C(F)(F)F)c3)cc2CCC12CC2)O[C@@H]1CN2CCC1CC2` (stereo partly drawn) [Example 192, (S)-quinuclidin-3-yl (6′-(3-(trifluoromethyl)phenyl)-3′,4′-dihydro-1′H-spiro[cyclopropane-1,2′-naphthalen]-1′-yl)carbamate] are 7.85 and 7.89.
In the case of `O=C(NC1c2ccc(-c3cccc(OC(F)(F)F)c3)cc2CCC12CC2)O[C@@H]1CN2CCC1CC2` (stereo partly drawn) [Example 193, (S)-quinuclidin-3-yl (6′-(3-(trifluoromethoxy)phenyl)-3′,4′-dihydro-1′H-spiro[cyclopropane-1,2′-naphthalen]-1′-yl)carbamate], the figures for the pIC50 (in the assay on GM1 production; in assay [1]) were 7.67 and 7.68, respectively.
With `COCCOc1ccc(-c2ccc3c(c2)CCC2(CC2)C3NC(=O)O[C@@H]2CN3CCC2CC3)cc1` (stereo partly drawn) [Example 194, (S)-quinuclidin-3-yl (6′-(4-(2-methoxyethoxy)phenyl)-3′,4′-dihydro-1′H-spiro[cyclopropane-1,2′-naphthalen]-1′-yl)carbamate], the pIC50 in the assay on GM1 production was 8.10; in assay [1], 8.99.
Regarding `COCCOc1cccc(-c2ccc3c(c2)CCC2(CC2)C3NC(=O)O[C@@H]2CN3CCC2CC3)c1` (stereo partly drawn) [Example 195, (S)-quinuclidin-3-yl (6′-(3-(2-methoxyethoxy)phenyl)-3′,4′-dihydro-1′H-spiro[cyclopropane-1,2′-naphthalen]-1′-yl)carbamate], the pIC50 was 7.63 with GM1 production and 8.27 in assay [1].
Take `COCCOc1ccccc1-c1ccc2c(c1)CCC1(CC1)C2NC(=O)O[C@@H]1CN2CCC1CC2` (stereo partly drawn) [Example 196, (S)-quinuclidin-3-yl (6′-(2-(2-methoxyethoxy)phenyl)-3′,4′-dihydro-1′H-spiro[cyclopropane-1,2′-naphthalen]-1′-yl)carbamate]: the negative logarithm of the IC50 (pIC50) in the assay on GM1 production is 7.60; in assay [1], 8.22.
The corresponding values for `COCOc1ccc(-c2ccc3c(c2)CCC2(CC2)C3NC(=O)O[C@@H]2CN3CCC2CC3)cc1` (stereo partly drawn) [Example 197, (S)-quinuclidin-3-yl (6′-(4-(methoxymethoxy)phenyl)-3′,4′-dihydro-1′H-spiro[cyclopropane-1,2′-naphthalen]-1′-yl)carbamate] are 8.55 and 8.50.
In the case of `COCOc1cccc(-c2ccc3c(c2)CCC2(CC2)C3NC(=O)O[C@@H]2CN3CCC2CC3)c1` (stereo partly drawn) [Example 198, (S)-quinuclidin-3-yl (6′-(3-(methoxymethoxy)phenyl)-3′,4′-dihydro-1′H-spiro[cyclopropane-1,2′-naphthalen]-1′-yl)carbamate], the pIC50 in the assay on GM1 production was 8.06; in assay [1], 8.29.
For the molecule `COCOc1ccccc1-c1ccc2c(c1)CCC1(CC1)C2NC(=O)O[C@@H]1CN2CCC1CC2` (stereo partly drawn) [Example 199, (S)-quinuclidin-3-yl (6′-(2-(methoxymethoxy)phenyl)-3′,4′-dihydro-1′H-spiro[cyclopropane-1,2′-naphthalen]-1′-yl)carbamate], the negative logarithm of the IC50 (pIC50) in the assay on GM1 production is 8.12; in assay [1], 8.14.
The corresponding values for `COc1ccc(-c2ccc3c(c2)CCC2(CC2)C3NC(=O)O[C@@H]2CN3CCC2CC3)c(Cl)c1` (stereo partly drawn) [Example 200, (S)-quinuclidin-3-yl (6′-(2-chloro-4-methoxyphenyl)-3′,4′-dihydro-1′H-spiro[cyclopropane-1,2′-naphthalen]-1′-yl)carbamate] are 7.34 and 8.05.
The corresponding values for `COc1cc(-c2ccc3c(c2)CCC2(CC2)C3NC(=O)O[C@@H]2CN3CCC2CC3)ccc1Cl` (stereo partly drawn) [Example 201, (S)-quinuclidin-3-yl (6′-(4-chloro-3-methoxyphenyl)-3′,4′-dihydro-1′H-spiro[cyclopropane-1,2′-naphthalen]-1′-yl)carbamate] are 6.95 and 7.48.
`COc1ccc(-c2ccc3c(c2)CCC2(CC2)C3NC(=O)O[C@@H]2CN3CCC2CC3)cc1F` (stereo partly drawn) [Example 202, (S)-quinuclidin-3-yl (6′-(3-fluoro-4-methoxyphenyl)-3′,4′-dihydro-1′H-spiro[cyclopropane-1,2′-naphthalen]-1′-yl)carbamate]: the pIC50 in the assay with GM1 production was 7.61; in assay [1], 8.94.
The corresponding values for `CCc1cccc(-c2ccc3c(c2)CCC2(CC2)C3NC(=O)O[C@@H]2CN3CCC2CC3)c1` (stereo partly drawn) [Example 203, (S)-quinuclidin-3-yl (6′-(3-ethylphenyl)-3′,4′-dihydro-1′H-spiro[cyclopropane-1,2′-naphthalen]-1′-yl)carbamate] are 7.46 and 7.87.
